Reference: patent US9580713B2 (priority 2011, dated 2017)
Several values for one entry are separate records, joined by “and”; a condition that tells them apart may be missing. Identical values can stand only once. Entries after “also recorded” stand apart in the source; their conditions may differ. Like-named read-outs stand apart in the source and are kept apart here.

Experiments:
[1] = system: 78 Psy crcB motif RNA (fluoride riboswitch aptamer); assay type: binding, Pseudomonas syringae
[2] = system: riboswitch associated with B. cereus crcB fused to lacZ; conditions: increasing amounts of fluoride, X-gal and Miller assays with ONPG
Protocol: (§1) Cell growth of WT and crcB KO E. coli strains were measured overnight using a Bioscreen C instrument (Oy Growth Curves Ab Ltd, Finland). The amount of fluoride added to the media was varied to measure the effect on growth at several pH values. Reporter constructs with B. cereus or P. syringae riboswitch sequences fused to the lacZ gene were cloned into the vectors pDG1661 or pRS414, respectively. The two vectors were transformed into B. subtilis or E. coli, and gene expression was examined by addition of X-gal into grown cultures or quantified with Miller assays.

[3] = system: eriC^F-rescued E. coli crcB KO cells
Protocol: The eriC^F gene from P. syringae DC3000 was amplified from genomic DNA by PCR and cloned into the pCR2.1 TA vector (Invitrogen). The cloned fragment contained the full length eriC^F ORF, the 5′ UTR features described above, and the native promoter to drive expression.
(§2) Growth curves to compare pH conditions used 350 μL of LB (neutral pH) or LBK medium (pH 5.5), 3.5 μL of an overnight culture, and 3.5 μL, of a 10× sodium fluoride or sodium chloride solution. Growth curves with empty or eriC^F-containing plasmid included 100 μg mL^−1 carbenicillin added to the growth medium (2XLB), which was subsequently diluted two-fold to a final concentration of 50 μg mL^−1.

[4] = system: fluoride riboswitch from the P. syringae eriC gene fused to lacZ
Protocol: as §1
The 5′ UTR of COG0038 (eriC^F homolog) was amplified from P. syringae DC3000 genomic DNA as an EcoRI-BamHI fragment and cloned into the translational reporter vector pRS414. […] Specifically, the region encompassing nucleotides −248 to +24 with respect to the beginning of the eriC^F ORF was cloned as a translational fusion in pRS414, wherein the 8th codon of the ORF was fused in frame to the 9th codon of lacZ reporter gene. Mutations in the regulatory region were generated by a three-step PCR approach using methods described previously (A. Nahvi, et al., Chem. Biol. 9, 1043 (2002)).
(§3) E. coli strains BW25113 and its crcB KO derivative strain harboring the eriC^F riboswitch reporter construct were streaked on modified LB plates with carbenicillin (100 μg mL^−1) and X-gal (800 μg ml^−1). Plates included 0, 0.2 or 50 mM NaF.

crcB motif RNA [5] = conditions: read-out: KD for fluoride binding; in-line probing
Protocol: (§4) Briefly, in vitro transcribed RNA were 5′ ^32P-radiolabeled and trace amounts (˜1 nM) were incubated at room temperature for 48 hours (unless otherwise indicated) in the presence of 100 mM KCl, 50 mM Tris-HCl (pH 8.3 at 23° C.), and 20 mM MgCl2. Cleavage products were separated by using denaturing 10% PAGE and imaged with a PhosphorImager (Molecular Dynamics). ImageQuant 5.1 was used to establish band intensities. Exceptions to the typical in-line probing methods are detailed in the following sections.

crcB motif RNA [6] = conditions: read-out: KD for fluoride binding; in-line probing; remark: listed apart in the source
Protocol: as §4

[7] = system: crcB KO strain of E. coli; assay: microbe, parasite or virus in culture
Protocol: as §1, §2, §3

[8] = biological target: T1, fluoride transporter protein CrcB (Escherichia coli, UniProt P37002); assay: Fluoride riboswitch beta-galactosidase reporter (4-MUG) in E. coli with imipramine; assay type: cell-based
T1 construct: this bacterial species does code for a CrcB protein; endogenous in cells; host or cells: E. coli
Description: (§5) A fluoride riboswitch fused to a beta-galactosidase reporter gene is present in E. coli cells and cells are exposed to concentrations of sodium fluoride and imipramine (x-axis) as noted. The structure of imipramine is shown below.

[9] = system: E. coli cells lacking the gene to express the fluoride transporter protein CrcB; assay: Fluoride riboswitch beta-galactosidase reporter (4-MUG) in E. coli lacking CrcB with imipramine; assay type: cell-based; conditions: same construct in cells lacking CrcB, compared with cells having CrcB
Description: as §5

[10] = ligands at 10 mM or as in footnotes of Tables 1 and 2 (CO ~0.9 mM, NO 1 mM)

T1 sequence (P37002 whole entry): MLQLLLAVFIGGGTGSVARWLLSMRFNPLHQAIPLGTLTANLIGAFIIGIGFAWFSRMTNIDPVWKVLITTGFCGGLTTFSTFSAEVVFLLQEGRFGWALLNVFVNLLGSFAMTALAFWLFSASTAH
Protocol for WT E. coli cells: For each bacterial strain, an overnight culture was set up of the desired bacteria the previous day. The majority of the growth curves were conducted in 350 μL LB medium that initially was not supplemented with salt. […] The desired concentration of NaF or NaCl was subsequently added as designated for each culture after a 1:100 dilution of an overnight culture. Wells with NaF concentrations below 1 mM were supplemented with 1 mM NaCl. Each condition was set up in duplicate or triplicate. Every fifteen minutes the 100-well plate was shaken at medium intensity for 10 seconds and the OD600 was automatically measured for a period of 16 hours. The data was analyzed using Microsoft Excel.

## [Ca+2].[Cl-].[Cl-] [Ca^2+, calcium chloride]
[1]
  effect on fluoride-dependent RNA structural modulation: diminishes RNA structural modulation; also recorded: complete loss of modulation

## [F-].[Na+] [NaF, sodium fluoride]
[1]
  conformational changes of 78 Psy crcB motif RNA: trigger identical conformational changes
WT E. coli cells; liquid media
  concentration at which growth becomes noticeably reduced: 30 mM
WT E. coli cells; liquid media, 16 hr growth curves
  minimum inhibitory concentration (MIC): ~200 mM

## CCCC[N+](CCCC)(CCCC)CCCC.[F-] [TBAF, Tetra-n-butylammonium fluoride]
[1]
  conformational changes of 78 Psy crcB motif RNA: trigger identical conformational changes

## Br [bromide]
[1]
  binding / structure modulation by other ligands: rejects

## [C-]#[O+] [carbon monoxide]
[1]; [10]
  binding / structure modulation by other ligands: rejected

## Cl [chloride]
[1]
  78 Psy aptamer structure on exposure to chloride: remains unchanged
  binding / structure modulation by other ligands: rejects

## F [fluoride]
[1]
  selectivity of aptamer binding, fluoride versus chloride: at least 40,000 fold
[1]; read-out: apparent dissociation constant (KD)
  Kd: ~60 µM and 60 µM
WT E. coli cells; 50 mM fluoride
  growth: robust growth
[2]
  β-galactosidase reporter activity: induced high levels of expression
[3]; 1 mM fluoride
  growth inhibition: almost no growth inhibition
[3]; eriC^F-rescued cells
  fluoride concentration in culture medium required to cause growth inhibition and reporter expression: ~10 mM
[4]; crcB K.O. strain
  fluoride concentration in growth medium yielding maximal reporter gene signal: 1 mM
[4]; solid medium supplemented with 50 mM fluoride
  β-galactosidase expression: readily apparent
crcB motif RNA [5]
  Kd: ~50 µM
crcB motif RNA [6]
  Kd: ~50 µM
[7]; 50 mM fluoride
  growth: fails to grow
[7]; Escherichia coli, 16 h, read-out: minimum inhibitory concentration (MIC)
  MIC: > 1 mM

## O [hydroxide ions, hydroxide]
[1]; pH 9.7
  RNA conformational changes with hydroxide: do not trigger RNA conformational changes

## CN(C)CCCN1c2ccccc2CCc2ccccc21 [imipramine, 3-(10,11-dihydro-5H-dibenzo[b,f]azepin-5-yl)-N,N-dimethylpropan-1-amine]
[8]; 330 μM imipramine, with sodium fluoride
  reporter gene expression (fluorescence, 4-MUG): increased expression of the reporter gene
[8]; concluded from reporter results with and without CrcB
  action on fluoride transporter CrcB: blocks this fluoride transporter
[9]
  level of reporter gene expression with imipramine: substantially reduced

## I [iodide]
[1]; [10]
  binding / structure modulation by other ligands: rejects

## [N]=O [nitric oxide]
[1]; [10]
  binding / structure modulation by other ligands: rejected

## F.[F-].[K+] [potassium bifluoride]
[1]
  conformational changes of 78 Psy crcB motif RNA: trigger identical conformational changes
